One data set has as its system TNFα. In words: Inhibition of TNFα release from THP-1 cells stimulated with PMA and polyinosic acid (human TNFα ELISA). It counts as cell-based. As to conditions: 3×10^6 cells/ml, compound 1 h, then PMA 2 μg/ml and polyinosic acid 200 μg/ml, 24 h, supernatant. How it is done: The pyrrolidinone derivatives of the present invention were evaluated for the activity to inhibit the release of TNFα, in accordance with the following method.
Then, PMA and polyinosic acid were added to each well so as to provide final concentrations of 2 μg/ml and 200 μg/ml, respectively. […] After incubation, a supernatant was recovered from each well by means of Pipetteman available from Gilson Co., Ltd. An amount of TNFα in the supernatant was assayed by means of the human TNFα ELISA kit available from Genzyme Co., Ltd.
The results are summarized below, expressed in terms of IC50 values in μM unit, wherein the amount of TNFα released at the time of no addition of the pyrrolidinone derivatives is defined as 100 and the concentration of each test compound of the present invention to inhibit 50% the TNFα release is defined as IC50.

Another data set concerns IL-1β. The data set can be described thus: Inhibition of IL-1β production in THP-1 cells stimulated with PMA and polyinosic acid (enzyme immunoassay). As to conditions: Homo sapiens, 3×10^6 cells/ml, compound 1 h, then PMA 2 μg/ml and polyinosic acid 200 μg/ml, 24 h, supernatant. It counts as cell-based. How it is done:
The pyrrolidinone derivatives of the present invention were evaluated for the activity to inhibit the production of IL-1β, in accordance with the following method.
Then, 12-o-tetradecanoylphorbol-13-acetate (PMA) and polyinosic acid were added to each well so as to provide final concentrations of 2 μg/ml and 200 μg/ml, respectively. […] After incubation, a supernatant was recovered from each well by means of Pipetteman available from Gilson Co., Ltd. Then, an amount of the IL-1β in the supernatant was assayed by means of the enzyme immunoassay kit available from Cayman Chemical Co., Ltd.
The results are summarized below, expressed in terms of IC50 values in μM unit, wherein the amount of IL-1β produced at the time of no addition of the pyrrolidinone derivative is defined as 100 and the concentration of each test compound of the present invention to inhibit 50% the IL-1β production is defined as IC50.

The structures appear in SMILES notation.

A word on the IC50: it is the concentration that gives 50% inhibition. The low end stands for higher potency, the high end for lower potency.

For the molecule `O=C(C=Cc1ccccc1)N1CCCC1=O` [Compound 1], the IC50 in the data set on TNFα worked out at 2.8 µM; with IL-1β it was 26 µM. `COc1ccccc1C=CC(=O)N1CCCC1=O` [Compound 2] had a half-inhibitory concentration (IC50) in the data set with IL-1β of 86 µM.

As to `COc1cccc(C=CC(=O)N2CCCC2=O)c1` [Compound 3], the IC50 in the data set with IL-1β was determined as 73 µM. The same measure, in the same setting: in the case of `COc1ccc(C=CC(=O)N2CCCC2=O)cc1` [Compound 4] it was 73 µM. With `COc1ccc(C=CC(=O)N2CCCC2=O)cc1OC` [Compound 5], the 50% inhibitory concentration (IC50) in the data set with TNFα amounted to 16 µM; in the data set on IL-1β it was 69 µM. For `O=C(C=Cc1ccc([N+](=O)[O-])cc1)N1CCCC1=O` [Compound 9], the half-maximal inhibitory concentration (IC50) in the data set on TNFα is 3 µM; with IL-1β, 13 µM.

With `O=C(C=Cc1ccc([N+](=O)[O-])cc1[N+](=O)[O-])N1CCCC1=O` [Compound 10], the cytotoxicity entry in the data set with THP-1 cells is given as “no cytotoxicity was found”. With `O=C(C=Cc1ccccn1)N1CCCC1=O` [Compound 12], the IC50 in the data set with TNFα came to 4.6 µM; in the data set with IL-1β, 1.4 µM. Turning to `O=C(C=Cc1cccnc1)N1CCCC1=O` [Compound 13], the results for the IC50 in the data set on TNFα and in the data set with IL-1β were 30 µM and 48 µM, respectively. The molecule `O=C(C=Cc1ccncc1)N1CCCC1=O` [Compound 14] came in with an IC50 in the data set with IL-1β of 42 µM. That is a double-digit micromolar value.

(Values after US5753691A, “Agents for inhibiting the production of IL-1β and the release of TNFα” (Nisshin Flour Milling Co., Ltd., priority 1994, dated 1998).)
